Experimental data from the NIST ThermoML archive (doi:10.1021/je0400052).

Legend:
[1] = xn = mol fraction of the nth substance listed; conditions: 101.3 kPa, Liquid
[2] = refractive index (Na D-line) (dimensionless); xn = mol fraction of the nth substance listed; conditions: 101.3 kPa, Liquid

CCOC=O [ethyl methanoate] + Cc1cccc(C)c1
Conditions	mass density, [1] [kg/m3]	refractive index, [2]	viscosity, [1] [mPa·s]
303.15 K, x1 = 0.1348	858.3	1.4892	0.524
303.15 K, x1 = 0.2728	863.3	1.4695	0.494
303.15 K, x1 = 0.3968	868.7	1.4561	0.467
303.15 K, x1 = 0.4988	873.1	1.4391	0.449
303.15 K, x1 = 0.6032	877.7	1.4288	0.43
303.15 K, x1 = 0.6923	882.8	1.4265	0.414
303.15 K, x1 = 0.7867	888.4	1.4055	0.398
303.15 K, x1 = 0.8591	895	1.3875	0.386
303.15 K, x1 = 0.9379	900.1	1.3856	0.373
313.15 K, x1 = 0.1348	849.8	1.482	0.479
313.15 K, x1 = 0.2728	854.4	1.4679	0.453
313.15 K, x1 = 0.3968	859.5	1.4578	0.431
313.15 K, x1 = 0.4988	864.3	1.438	0.412
313.15 K, x1 = 0.6032	869.2	1.4276	0.397
313.15 K, x1 = 0.6923	874.3	1.4253	0.384
313.15 K, x1 = 0.7867	880.1	1.4043	0.369
313.15 K, x1 = 0.8591	884.1	1.385	0.357
313.15 K, x1 = 0.9379	889.7	1.3841	0.347

CCOC=O [ethyl methanoate] + Cc1ccccc1C
Conditions	mass density, [1] [kg/m3]	refractive index, [2]	viscosity, [1] [mPa·s]
303.15 K, x1 = 0.1467	872.7	1.4906	0.63
303.15 K, x1 = 0.2667	877.4	1.4873	0.586
303.15 K, x1 = 0.3779	880	1.4786	0.544
303.15 K, x1 = 0.4984	882.6	1.4721	0.502
303.15 K, x1 = 0.5936	886.9	1.4631	0.471
303.15 K, x1 = 0.694	891.2	1.4347	0.444
303.15 K, x1 = 0.7791	896.7	1.4072	0.42
303.15 K, x1 = 0.8563	901.2	1.3981	0.4
303.15 K, x1 = 0.9337	903.7	1.3729	0.378
313.15 K, x1 = 0.1467	864.6	1.4896	0.558
313.15 K, x1 = 0.2667	868.5	1.4819	0.521
313.15 K, x1 = 0.3779	871.9	1.4735	0.487
313.15 K, x1 = 0.4984	873.7	1.4671	0.452
313.15 K, x1 = 0.5936	876.9	1.4612	0.43
313.15 K, x1 = 0.694	881.6	1.4216	0.402
313.15 K, x1 = 0.7791	885.9	1.4061	0.382
313.15 K, x1 = 0.8563	889.6	1.3969	0.366
313.15 K, x1 = 0.9337	891.1	1.3701	0.359
